Laboratory results as given in patent US20240400555A1 (Initial Therapeutics, Inc., priority 2023, published 2024).

These compounds were tested on HCT-116 Firefly-luciferase reporter cells (assay: Cellular c-MYC Reporter Assay). Conditions: Homo sapiens; untitled table following Table 8a; HCT-116 Firefly-luciferase reporter cells, 24 h; read-out: pIC50 (converted).
Assay type: cell-based
Experimental: HCT-116 Firefly-luciferase reporter cells (BPS Bioscience) were seeded in 96-well tissue-culture treated sterile plates (Greiner Bio-One) at 5e4 cells/mL in 100 μL complete growth media (McCoy's 5A+10% FBS, +1% Pen-Strep, +1% G418). Cells were incubated at 37° C. with 5% CO2 for 4-6 h then treated with 3× compound solution in 50 μL complete growth media for a final volume of 150 μL per well with 0.2% DMSO. After 24 h incubation at 37° C. with 5% CO2, plates were allowed to equilibrate to RT for 20 min then developed by addition of 100 μL ONE-Glo Luciferase detection reagent (Promega), incubated at RT for 10 min. Luminescence was recorded using a SpectraMax i3x plate reader (Molecular Devices) and analyzed using Prism GraphPad 9 software.
Cc1cccc2ccnc(N(C(=O)c3ccc(Nc4ncccn4)cc3F)[C@@H]3CCCNC3)c12 [Example 210, (R)-2-fluoro-N-(8-methylisoquinolin-1-yl)-N-(piperidin-3-yl)-4-(pyrimidin-2-ylamino)benzamide] was tested, and the IC50 was 0.275 µM.
Cc1cccc2ccnc(N(C(=O)N3CCC(c4nc(C5CC5)no4)CC3)[C@@H]3CCCNC3)c12 [Example 262, (R)-4-(3-cyclopropyl-1,2,4-oxadiazol-5-yl)-N-(8-methylisoquinolin-1-yl)-N-(piperidin-3-yl)piperidine-1-carboxamide] showed an IC50 of 0.575 µM.
Work on O=C(c1ccc(-n2nnc3cccnc32)cc1F)N(c1nccc2cccc(C(F)(F)F)c12)[C@@H]1CCCNC1 [Example 221, (R)-4-(3H-[1,2,3]triazolo[4,5-b]pyridin-3-yl)-2-fluoro-N-(piperidin-3-yl)-N-(8-(trifluoromethyl)isoquinolin-1-yl)benzamide] yielded an IC50 of 2 µM.
CC(C)(C)[Si](C)(C)OC/C=C/c1cc2c(N(C(=O)c3ccc(-n4nnc5cccnc54)cc3F)[C@@H]3CCCNC3)nccc2s1 [Example 99, (R,E)-4-(3H-[1,2,3]triazolo[4,5-b]pyridin-3-yl)-N-(2-(3-((tert-butyldimethylsilyl)oxy)prop-1-en-1-yl)thieno[3,2-c]pyridin-4-yl)-2-fluoro-N-(piperidin-3-yl)benzamide] gave an IC50 of 2 µM.
For Cc1cccc2ccnc(N(C(=O)N3CCC(Oc4ccccc4)CC3)[C@@H]3CCCNC3)c12 [Example 189, (R)—N-(8-methylisoquinolin-1-yl)-4-phenoxy-N-(piperidin-3-yl)-1-carboxamide], the IC50 was 5.62 µM.
Compound Cc1nccnc1-c1ccc(C(=O)N(c2nccc3cccc(Cl)c23)[C@@H]2CCCNC2)c(F)c1 [Example 182, (R)—N-(8-chloroisoquinolin-1-yl)-2-fluoro-4-(3-methylpyrazin-2-yl)-N-(piperidin-3-yl)benzamide] has an IC50 of 0.891 µM.
In the case of Cc1cccc2ccnc(N(C(=O)c3ccc(Nc4ncccn4)cc3F)[C@@H]3CCCCNC3)c12 [Example 185, (R)—N-(azepan-3-yl)-2-fluoro-N-(8-methylisoquinolin-1-yl)-4-(pyrimidin-2-ylamino)benzamide], the IC50 is reported as 3.31 µM.
COC(=O)c1ccc2c(N(C(=O)c3ccc(-n4nnc5cccnc54)cc3F)[C@@H]3CCCNC3)nccc2c1 [Example 117, methyl (R)-1-(4-(3H-[1,2,3]triazolo[4,5-b]pyridin-3-yl)-2-fluoro-N-(piperidin-3-yl)benzamido)isoquinoline-6-carboxylate] showed an IC50 of 0.49 µM.
Cn1cc(-c2ccc(C(=O)N(c3cc(/C=C/c4ccccc4)ccn3)[C@@H]3CCCNC3)cc2)nn1 [Example 109, (R,E)-4-(1-methyl-1H-1,2,3-triazol-4-yl)-N-(piperidin-3-yl)-N-(4-styrylpyridin-2-yl)benzamide] was tested, and the IC50 was greater than 10 µM.
O=C(O)/C=C/c1ccc2ccnc(N(C(=O)c3ccc(-n4nnc5cccnc54)cc3F)[C@@H]3CCCNC3)c2c1 [Example 295, (R,E)-3-(1-(4-(3H-[1,2,3]triazolo[4,5-b]pyridin-3-yl)-2-fluoro-N-(piperidin-3-yl)benzamido)isoquinolin-7-yl)acrylic acid] showed an IC50 greater than 20 µM.
In the case of Cc1cccc2ccnc(N(C(=O)c3ccc(Nc4ncns4)cc3F)[C@@H]3CCCNC3)c12 [Example 280, 2-fluoro-N-(8-methyl-1-isoquinolyl)-N-[(3R)-3-piperidyl]-4-(1,2,4-thiadiazol-5-ylamino)benzamide], the IC50 is reported as 0.891 µM.
For Cc1cccc2ccnc(N(C(=O)c3ccc(-c4cn(C)nn4)cc3F)[C@@H]3CCCNC3)c12 [Example 193, (R)-2-fluoro-4-(1-methyl-1H-1,2,3-triazol-4-yl)-N-(8-methylisoquinolin-1-yl)-N-(piperidin-3-yl)benzamide], the IC50 was 0.0794 µM.
Cc1cccc2ccnc(N(C(=O)N3CCCC(CC4CCC4)C3)[C@@H]3CCCNC3)c12 (stereo partly drawn) [Example 260, 3-(cyclobutylmethyl)-N-(8-methylisoquinolin-1-yl)-N—((R)-piperidin-3-yl)piperidine-1-carboxamide] was tested, and the IC50 was 5.25 µM.
